The values below come from PMC9902378, “Quinate-based ligands for irreversible inactivation of the bacterial virulence factor DHQ1 enzyme—A molecular insight” (Frontiers in Molecular Biosciences, 2023).

Test [1] has as its target T1, Sa-DHQ1 (Staphylococcus aureus, UniProt Q6GII7).
T1 construct: made in house
The test can be described thus: Time-dependent irreversible inhibition assay (incubation of enzyme with ligand, residual activity at 234 nm). It counts as biochemical. How it is done:
(§1) The inhibitory capacity of compounds 6–8 against DHQ1 enzymes from S. aureus and S. typhi was evaluated. For irreversible inhibition assays, the enzyme was incubated with the ligand and its remaining activity was progressively determined using aliquots from the incubation samples and the control. For reversible competitive inhibition assays, the activity of the enzyme in the presence of increasing amount of ligand was evaluated. The enzyme activity was determined by monitoring the increase in absorbance at 234 nm in the UV spectrum due to formation of the enone-carboxylate chromophore of the enzyme product, 3-dehydroshikimic acid 2).
(§2) The St-DHQ1 and Sa-DHQ1 enzyme were purified as described previously ([Moore et al., 1993]; [Nichols et al., 2004]). Concentrated solutions of St-DHQ1 (0.85 mg mL^−1, 30.74 µM) and Sa-DHQ1 (4 mg mL^−1, 148.13 µM) were stored in potassium phosphate buffer (PPB) (50 mM) and DTT (1 mM) at pH 6.6 and −80°C. When required for assays, aliquots of the enzyme stocks were diluted in water and buffer and stored on ice. DHQ1 was assayed in the forward direction by monitoring the increase in absorbance at 234 nm in the UV spectrum due to the absorbance for the enone-carboxylate chromophore of 3-dehydroshikimic acid (ε/M^−1 cm^−1 12 000). Standard assay conditions were PPB (50 mM, pH 7.2) at 25°C. Each assay was initiated by addition of the substrate. Solutions of 3-dehydroquinic acid 1) were calibrated by equilibration with DHQ1 and measurement of the change in the UV absorbance at 234 nm due to formation of the enone-carboxylate chromophore of 3-dehydroshikimic acid. […] The program GraFit 7.0.3. (Erithacus Software Ltd.). was used for data fitting.
(§3) Incubation of Sa-DHQ1 and St-DHQ1 (2.96 µM from a stock protein concentration of […]) with various aqueous solutions of compounds 6–8 (30–4,000 µM) was carried out in PPB (0.5 mL, 50 mM) at pH 7.2 at 25°C. The activity was determined progressively in duplicate over a 3 h period under the standard assay conditions (see above) using aliquots from the incubation samples and the control. Semilogarithmic plots of residual activity as a function of time with a range of inhibitor concentrations [I] were performed to obtain the first-order rate constant, k obs, calculated from the slope, and is related with k inact KI constants by Equation 1 implemented in GraFit ([Plapp, 1982]): kobs=(kinact I) / (KI)+I) (1)

Test [2] addresses T2, St-DHQ1 (Salmonella typhi, UniProt P24670).
T2 construct: made in house
T2 sequence (P24670 1-252): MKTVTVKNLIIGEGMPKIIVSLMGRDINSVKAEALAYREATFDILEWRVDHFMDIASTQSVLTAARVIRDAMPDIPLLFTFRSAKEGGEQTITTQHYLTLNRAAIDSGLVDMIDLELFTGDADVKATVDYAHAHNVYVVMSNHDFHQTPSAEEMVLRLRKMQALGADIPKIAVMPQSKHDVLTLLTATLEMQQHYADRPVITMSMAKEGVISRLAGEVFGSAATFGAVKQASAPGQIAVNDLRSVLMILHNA
The description is as above. The test is classed as biochemical. How it is done:
as §1, §2, §3

The target of test [3] is T2, St-DHQ1. The experiment in a line: MALDI mass spectrometry of enzyme incubated with ligand. The test is classed as binding. Particulars: for covalent modification of enzyme (MALDI): similar studies, incubation with ligand. As to the method:
The covalent modification of DHQ1 by compound 6 was also corroborated by mass spectrometry analysis of samples incubated with and without ligand.
St-DHQ1 (3.1 µM from a stock protein concentration of 0.85 mg mL^−1) and Sa-DHQ1 (3.0 µM from a stock protein concentration of 4 mg mL^−1) was incubated with various aqueous solutions of ligands 6–8 in PPB (0.5 mL, 50 mM) at pH 7.2, 25°C. The activity was determined progressively over a 24 h period under the standard assay conditions using aliquots from the incubation samples and the control. The activity was measured at a substrate concentration of 14 µM. The initial rate of each assay was measured. The samples were concentrated and washed (5 mM ammonium carbonate) for MALDI analysis by centrifugation at 4 °C using Amicon® centrifugal filters (Amicon Ultra-10). The samples were freeze-dried, diluted with 5 mM ammonium bicarbonate (5 µL) and analyzed by mass spectrometry using a MALDI TOF/TOF Mass Spectrometer (4,800 Analyzer, AbSciex). The ProteoMass™ MALDI calibration kit (Merck) was employed for calibration and sanipic acid as a matrix. Spectra were analyzed using the Data Explorer™ Software. Experiments were performed in triplicate.
Figure S3. MALDI spectra of St-DHQ1 after incubation with 3-hydroxylaminoquinic acid (6) (left) and the control (right). Incubation conditions were potassium phosphate buffer (50 mM, pH 7.0), 25 °C and (1:120) protein/ligand ratio, 24 h. After incubation and for MALDI analysis, the samples were successively washed with 5 mM […] by centrifugation at 4 °C using Amicon® centrifugal filters and concentrated. Sinapic acid was used as a matrix.
(1 picture or pasted object on this page, not shown here)

Test [4] addresses T1, Sa-DHQ1. The test can be described thus: Reversible competitive inhibition assay (initial rates, IC50). It counts as biochemical. Particulars: substrate 14 µM, PPB 50 mM, pH 7.2, 25°C. As to the method: as §1, §2
(§4) IC50 values were determined in duplicate by measuring the initial rates at fixed enzyme and substrate concentrations (14 µM) in the absence and in the presence of various compounds concentrations, which was adjusted to the Equation 2 implemented in GraFit: y=Emax / 1+(IC50 / x)^n (2)
(§5) were y is the observed effect at inhibitor concentration x, Emax corresponds to the maximum effect, IC50 is the concentration at which a 50% […] is obtained, and n is the slope of the curve.

Test [5] concerns the target T2, St-DHQ1. The description is as above. It counts as biochemical. Particulars: substrate 14 µM, PPB 50 mM, pH 7.2, 25°C. How it is done:
as §1, §2, §4, §5

Test [6] addresses T1, Sa-DHQ1. The experiment in a line: DHQ1 assay, kinetic parameters of the substrate. The test is classed as biochemical. Particulars: PPB 50 mM, pH 7.2, 25°C. As to the method: as §2
For test [7], the target named is T2, St-DHQ1. The test can be described thus: DHQ1 assay, kinetic parameters of the substrate. Particulars: PPB 50 mM, pH 7.2, 25°C. The test is classed as biochemical. As to the method: as §2
Test [8] deals with Salmonella enterica DHQ1 enzyme. Particulars: crystal structure PDB ID 4GUI, 1.78 Å; ref Light et al., 2014; cited from earlier work.
[9] abbreviates: PPB 50 mM, pH 7.2, 25°C, time-dependent irreversible inhibition.

Molecules are shown by their SMILES.

T1 sequence (Q6GII7 whole entry): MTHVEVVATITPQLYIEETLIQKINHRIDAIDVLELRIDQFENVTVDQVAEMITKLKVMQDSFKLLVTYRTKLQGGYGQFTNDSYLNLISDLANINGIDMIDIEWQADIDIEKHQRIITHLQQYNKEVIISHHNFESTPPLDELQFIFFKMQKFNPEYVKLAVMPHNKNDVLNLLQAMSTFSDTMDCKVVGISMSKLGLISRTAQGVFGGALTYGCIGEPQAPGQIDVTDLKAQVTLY

For `O=C(O)[C@@]1(O)C[C@@H](O)[C@H](O)[C@H](NO)C1` [Compound 6, (1S,3R,4R,5R)-1,3,4-trihydroxy-5-hydroxylaminocyclohexane-1-carboxylic acid], the type of inhibition entry at Sa-DHQ1 [1] and on St-DHQ1 [2] was “time-dependent irreversible inhibitor” throughout. Also, the k inact at Sa-DHQ1 [1] (PPB 50 mM, pH 7.2, 25°C) is listed as 8 ± 1 ms^−1; on St-DHQ1 [2] (PPB 50 mM, pH 7.2, 25°C), 13 ± 1 ms^−1. In addition, the Ki is 90 ± 8 µM at Sa-DHQ1 [1] (setting [9]) and 130 ± 12 µM on St-DHQ1 [2] (setting [9]). On St-DHQ1 [3] (St-DHQ1, ∼1:120 enzyme/ligand ratio, 24 h, 25°C), the “additional mass of covalently modified enzyme (MALDI)” value is reported as 158.
Turning to `N[C@@H]1C[C@@](O)(C(=O)O)C[C@@H](O)[C@@H]1O` [Compound 7, (1S,3R,4R,5R)-3-amino-1,4,5-trihydroxycyclohexane-1-carboxylic acid], the IC50 – broadly, the concentration that inhibits the measured activity by half – on Sa-DHQ1 [4] is 482 ± 19 µM; at St-DHQ1 [5], 528 ± 33 µM. For the same compound, the type of inhibition result at Sa-DHQ1 [1] and at St-DHQ1 [2] was “reversible competitive inhibitors” each time. Besides, the “covalent modification of enzyme (MALDI)” value on St-DHQ1 [3] is reported as “No modifications”.
At Sa-DHQ1 [6], `O=C1C[C@@](O)(C(=O)O)C[C@@H](O)[C@@H]1O` [3-dehydroquinic acid] returned a K m of 18 ± 3 µM and a k cat of 255 ± 12 s⁻¹. In addition, at St-DHQ1 [7], the K m is 24 ± 3 µM and the k cat is 1.1 ± 0.1 s⁻¹.
Turning to `O=C(O)[C@@]1(O)C[C@@H](O)[C@H](O)[C@@H]2O[C@@H]21` [Compound 8, (1S,2R,4R,5S,6S)-2,4,5-trihydroxy-7-oxabicyclo[4.1.0]heptane-2-carboxylic acid], the IC50 at Sa-DHQ1 [4] and at St-DHQ1 [5] was > 2000 µM each time. Also, the type of inhibition result at Sa-DHQ1 [1] and on St-DHQ1 [2] was “reversible competitive inhibitors” each time. The “covalent modification of enzyme (MALDI)” value on St-DHQ1 [3] is “No modifications”.
`O=C(O)[C@]1(O)C[C@@H](O)[C@@H](O)[C@H](O)C1` [(–)-quinic acid (9), (–)-quinic acid]: the “covalent adduct formation with the enzyme” value in test [8] is listed as “does not form a covalent adduct”.
